This series can be described thus: Simulated smoking tests (Example 14). The following applies: API alkalinized with excess NaOH, heated with a Sterno burner for 15 minutes.

Counter-ions that a name gives are not always drawn.

For `CN1CC[C@]23c4c5ccc(O)c4O[C@H]2[C@@H](O)C=C[C@H]3[C@H]1C5` [Morphine sulfate pentahydrate, morphine hemi(sulfate pentahydrate)], the API volatilized entry is “about 21%”.

The values are drawn from patent US12161754B2, “Abuse deterrent morphine sulfate dosage forms” (Purdue Pharma L.P., priority 2017, dated 2024).
